Experiments:
Type in all cases: in vivo
[1] = test system: Diabrotica balteata (Corn root worm); assay: Diabrotica balteata (Corn root worm) mortality on sprayed maize sprouts; details: 96 h, application rate 200 ppm, L2 larvae, assessed 4 days after infestation, read-out: mortality
Experimental: Diabrotica balteata (Corn root worm):
Maize sprouts placed onto an agar layer in 24-well microtiter plates were treated with aqueous test solutions prepared from 10′000 ppm DMSO stock solutions by spraying. After drying, the plates were infested with L2 larvae (6 to 10 per well). The samples were assessed for mortality 4 days after infestation.

[2] = test system: Euschistus heros (Neotropical Brown Stink Bug); assay: Euschistus heros feeding/contact activity on soybean leaves; details: 120 h, application rate 200 ppm, N2 nymphs, assessed 5 days after infestation, read-out: mortality
Experimental: Euschistus heros (Neotropical Brown Stink Bug): Feeding/contact activity
Soybean leaves on agar in 24-well microtiter plates were sprayed with aqueous test solutions prepared from 10′000 ppm DMSO stock solutions. After drying the leaves were infested with N2 nymphs. The samples were assessed for mortality 5 days after infestation.

[3] = test system: Myzus persicae (Green peach aphid); assay: Myzus persicae feeding/contact activity on sunflower leaf discs; details: foliar, 144 h, application rate 200 ppm, aphid population of mixed ages, assessed 6 days after infestation, read-out: mortality
Experimental: Myzus persicae (Green peach aphid): Feeding/Contact activity
Sunflower leaf discs were placed onto agar in a 24-well microtiter plate and sprayed with aqueous test solutions prepared from 10′000 ppm DMSO stock solutions. After drying, the leaf discs were infested with an aphid population of mixed ages. The samples were assessed for mortality 6 days after infestation.

[4] = test system: Plutella xylostella (Diamond back moth); assay: Plutella xylostella feeding/contact activity on artificial diet; details: 120 h, application rate 200 ppm, L2 larvae, assessed 5 days after infestation, read-out: mortality
Experimental: Plutella xylostella (Diamond back moth): Feeding/contact activity
24-well microtiter plates with artificial diet were treated with aqueous test solutions prepared from 10′000 ppm DMSO stock solutions by pipetting. After drying, the plates were infested with L2 larvae (10 to 15 per well). The samples were assessed for mortality 5 days after infestation.

[5] = test system: Spodoptera littoralis (Egyptian cotton leaf worm); assay: Spodoptera littoralis feeding/contact activity on cotton leaf discs; details: foliar, 72 h, application rate 200 ppm, L1 larvae, assessed 3 days after infestation, read-out: mortality
Experimental: Spodoptera littoralis (Egyptian cotton leaf worm): Feeding/contact activity
Cotton leaf discs were placed onto agar in 24-well microtiter plates and sprayed with aqueous test solutions prepared from 10′000 ppm DMSO stock solutions. After drying the leaf discs were infested with five L1 larvae. The samples were assessed for mortality 3 days after infestation. […] 2, 3, 4, 5, 6, 7, 8, 9, 10, 11, 12, 13, 14, 15, 16, 17, 18, 19, 20, 21, 22, 23, 24, 25, 26, 27, 28 and 29.

[6] = test system: Tetranychus urticae (Two-spotted spider mite); assay: Tetranychus urticae feeding/contact activity on bean leaf discs; details: foliar, 192 h, application rate 200 ppm, mite population of mixed ages, assessed 8 days after infestation, read-out: mortality on mixed population (mobile stages)
Experimental: Tetranychus urticae (Two-spotted spider mite): Feeding/contact activity
Bean leaf discs on agar in 24-well microtiter plates were sprayed with aqueous test solutions prepared from 10′000 ppm DMSO stock solutions. After drying the leaf discs were infested with a mite population of mixed ages. The samples were assessed for mortality on mixed population (mobile stages) 8 days after infestation.

[7] = test system: Thrips tabaci (Onion thrips); assay: Thrips tabaci feeding/contact activity on sunflower leaf discs; details: foliar, 144 h, application rate 200 ppm, thrips population of mixed ages, assessed 6 days after infestation, read-out: mortality
Experimental: Thrips tabaci (Onion thrips): Feeding/Contact activity
Sunflower leaf discs were placed on agar in 24-well microtiter plates and sprayed with aqueous test solutions prepared from 10′000 ppm DMSO stock solutions. After drying the leaf discs were infested with a thrips population of mixed ages. The samples were assessed for mortality 6 days after infestation.

Measured: mortality at 200 ppm

CCN(C(=O)c1cc(-c2cnn(-c3c(OC(F)F)c(C(F)(C(F)(F)F)C(F)(F)F)nn3C)c2)ccc1Cl)C1(C#N)CC1 [Example 3, 2-chloro-N-(1-cyanocyclopropyl)-5-[1-[4-(difluoromethoxy)-2-methyl-5-[1,2,2,2-tetrafluoro-1-(trifluoromethyl)ethyl]pyrazol-3-yl]pyrazol-4-yl]-N-ethyl-benzamide]
≥ 80%: all assays above

CC(=O)N(C(=O)c1cc(-c2cnn(-c3c(OC(F)F)c(C(F)(C(F)(F)F)C(F)(F)F)nn3C)c2)ccc1Cl)C1(C#N)CC1 [Example 12, N-acetyl-2-chloro-N-(1-cyanocyclopropyl)-5-[1-[4-(difluoromethoxy)-2-methyl-5-[1,2,2,2-tetrafluoro-1-(trifluoromethyl)ethyl]pyrazol-3-yl]pyrazol-4-yl]benzamide]
≥ 80%: all assays above

Cn1nc(C(F)(C(F)(F)F)C(F)(F)F)c(OC(F)F)c1-n1cc(-c2cnc(Cl)c(C(=O)NC3(C#N)CC3)c2)cn1 [Example 19, 2-chloro-N-(1-cyanocyclopropyl)-5-[1-[4-(difluoromethoxy)-2-methyl-5-[1,2,2,2-tetrafluoro-1-(trifluoromethyl)ethyl]pyrazol-3-yl]pyrazol-4-yl]pyridine-3-carboxamide]
≥ 80%: all assays above

Reference: patent US11365187B2, “Pesticidally active pyrazole derivatives” (SYNGENTA PARTICIPATIONS AG, priority 2017, dated 2022)
